Reference: PMC12152147, “DDB1 engagement defines the selectivity of S656 analogs for cyclin K degradation over CDK inhibition” (EMBO Reports, 2025)
Values joined by “and” are separate entries in the source; they are usually repeats but may differ in a detail not shown here. Equal values may be shown once. Read-outs that look alike come from different tables or passages of the source.

Assays:
[1] = system: primary AML specimens; assay: Dose-response assays in primary AML specimens (6 days, CellTiterGlo); format: cell-based, human; conditions: Homo sapiens, 144 h, 6 days, read-out: IC50
Protocol: Freshly thawed primary AML specimens were used for chemical screens. Cryopreserved cells were thawed at 37 °C in IMDM containing 20% FBS and DNase I (100 μg/mL). Cells were resuspended in IMDM supplemented with 15% BIT (BSA, insulin, transferrin; StemCell Technologies), 100 ng/mL SCF, 50 ng/mL FLT3L, 20 ng/mL IL3, 20 ng/mL G-CSF, 10^−4 mol/L b-mercaptoethanol, gentamicin (50 μg/mL), ciprofloxacin (10 μg/mL), SR1 (500 nmol/L) and UM729 (500 nmol/L). Cells were plated in 384-well white plates, 5000 cells per well in 50 μL. Compounds were dissolved in DMSO, diluted in media immediately before use and added to seeded cells at the unique concentration of 1 μM. Control wells received DMSO (0.1%) only. Cell viability was evaluated after 6 days in culture using the CellTiterGlo assay according to the manufacturer’s instruction. Percentage of inhibition for dose response curves was calculated as 100 – (100 × (mean luminescence [compound]/mean luminescence [DMSO])). Dose response curves were generated using nonlinear regression in GraphPad Prism version.
Dose-response assays in primary AML specimens were performed as in chemical screen (see above) with the exception that compounds were tested in serial dilution (8 dilutions, 1:4, 10 μM down to 0.5 nM). Dose-response assays in OCI-AML5 cell line were conducted similarly with the following modifications: 300 cells per well were seeded in 50 μL of cell line media and cell viability was evaluated after 4 days in culture.

[2] = system: OCI-AML5 cells; assay: Dose-response proliferative assay in OCI-AML5 (4 days, CellTiterGlo); format: cell-based, H. sapiens; conditions: Homo sapiens
Outline: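 Viability assessed after 4 days of compound exposure at 37 °C, 5% CO2. Compounds tested as 8 dilutions (1:4, 10 μM to 0.5 nM) on 300 OCI-AML5 cells/well grown in αMEM with 10% heat-inactivated FBS and 10 ng/mL GM-CSF.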

[3] = system: cyclin KeGFP; assay: Cyclin KeGFP reporter system (eGFP/mCherry MFI by flow cytometry); format: cell-based, H. sapiens
Outline: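 Degradation read as eGFP-to-mCherry MFI ratio relative to DMSO controls, from flow cytometry of the selected G7 clone of OCI-AML5 cells transduced with the cyclin KeGFP reporter.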

[4] = target: T1, CDK1 (Homo sapiens, UniProt P06493); assay: CDK1 in vitro kinase activity, single concentration 1 μM; format: biochemical; conditions: single concentration 1 μM
T1 construct: purchased BPS Bioscience 79597
T1 sequence (P06493 whole entry): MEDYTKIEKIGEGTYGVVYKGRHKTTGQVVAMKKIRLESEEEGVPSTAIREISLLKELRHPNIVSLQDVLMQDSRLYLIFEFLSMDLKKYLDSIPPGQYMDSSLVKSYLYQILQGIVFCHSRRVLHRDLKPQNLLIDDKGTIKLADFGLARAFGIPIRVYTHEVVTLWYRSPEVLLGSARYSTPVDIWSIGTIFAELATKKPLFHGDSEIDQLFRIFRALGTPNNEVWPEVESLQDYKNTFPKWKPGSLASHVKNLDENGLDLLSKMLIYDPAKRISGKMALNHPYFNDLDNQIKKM
T1 sequence (P14635 whole entry partner): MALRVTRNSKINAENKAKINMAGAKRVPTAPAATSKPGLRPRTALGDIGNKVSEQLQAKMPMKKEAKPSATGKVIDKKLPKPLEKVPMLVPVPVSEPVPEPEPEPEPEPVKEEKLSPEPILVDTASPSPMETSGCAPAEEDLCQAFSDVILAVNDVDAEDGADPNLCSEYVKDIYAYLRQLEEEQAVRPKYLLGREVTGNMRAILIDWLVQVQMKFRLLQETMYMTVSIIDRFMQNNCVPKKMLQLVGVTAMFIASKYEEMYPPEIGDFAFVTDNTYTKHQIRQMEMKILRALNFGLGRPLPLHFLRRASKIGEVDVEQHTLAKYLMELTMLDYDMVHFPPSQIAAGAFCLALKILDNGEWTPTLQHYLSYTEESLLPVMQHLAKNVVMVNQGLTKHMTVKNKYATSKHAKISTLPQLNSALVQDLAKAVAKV
Protocol: (§1) Kinase activity was assessed using the kinase assay kits from BPS Bioscience for CDK1, CDK9 and CDK12 with Kinase Glo MAX in duplicates. Compounds were tested at a single concentration of 1 μM for CDK1 and CDK9 activity, and in a dilution ranging from 0.64 nM to 50 μM for CDK12 activity. Chemiluminescence was read using the Neo Synergy BioTek plate reader.

[5] = target: T2, CDK9/CyclinT (Homo sapiens, UniProt P50750); assay: CDK9/CyclinT in vitro kinase activity, single concentration 1 μM; format: biochemical; conditions: single concentration 1 μM
T2 construct: purchased BPS Bioscience 79628
T2 sequence (P50750 whole entry): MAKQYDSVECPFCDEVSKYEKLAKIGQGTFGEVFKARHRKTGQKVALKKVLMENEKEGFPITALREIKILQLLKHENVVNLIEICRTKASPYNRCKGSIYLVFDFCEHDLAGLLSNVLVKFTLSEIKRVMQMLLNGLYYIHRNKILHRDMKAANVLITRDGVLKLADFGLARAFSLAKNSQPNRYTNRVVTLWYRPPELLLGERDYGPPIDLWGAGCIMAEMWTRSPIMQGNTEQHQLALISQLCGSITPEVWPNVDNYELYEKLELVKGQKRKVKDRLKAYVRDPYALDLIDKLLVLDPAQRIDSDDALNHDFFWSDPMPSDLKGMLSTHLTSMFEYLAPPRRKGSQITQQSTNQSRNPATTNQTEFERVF
T2 sequence (O60563 whole entry partner): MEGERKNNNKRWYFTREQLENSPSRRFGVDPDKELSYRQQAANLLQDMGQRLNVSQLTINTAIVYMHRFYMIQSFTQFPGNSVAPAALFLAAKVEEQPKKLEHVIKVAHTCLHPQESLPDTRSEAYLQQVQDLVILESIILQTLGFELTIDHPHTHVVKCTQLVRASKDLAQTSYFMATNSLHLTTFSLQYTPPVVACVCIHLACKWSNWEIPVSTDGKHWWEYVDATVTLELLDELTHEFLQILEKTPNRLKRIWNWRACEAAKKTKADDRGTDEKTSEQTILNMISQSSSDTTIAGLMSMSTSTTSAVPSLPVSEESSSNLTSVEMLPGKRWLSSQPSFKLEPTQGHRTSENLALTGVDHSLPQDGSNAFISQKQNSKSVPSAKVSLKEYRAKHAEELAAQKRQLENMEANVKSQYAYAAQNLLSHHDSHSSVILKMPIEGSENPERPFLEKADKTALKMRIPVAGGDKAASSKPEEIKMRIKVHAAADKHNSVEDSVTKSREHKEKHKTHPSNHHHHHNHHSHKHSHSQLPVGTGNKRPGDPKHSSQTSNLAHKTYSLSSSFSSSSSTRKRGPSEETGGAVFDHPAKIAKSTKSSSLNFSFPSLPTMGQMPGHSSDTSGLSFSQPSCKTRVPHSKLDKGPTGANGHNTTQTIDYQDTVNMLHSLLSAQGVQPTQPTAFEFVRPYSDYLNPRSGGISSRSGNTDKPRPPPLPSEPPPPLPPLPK
Protocol: as §1

[6] = system: OCI-AML5 cells expressing shRNAs targeting CDK1, 2, 4, 7, 9, cyclin K; assay: Dose response in OCI-AML5 expressing shRNAs targeting CDK1, 2, 4, 7, 9, cyclin K or control; format: cell-based, H. sapiens
[7] = system: OCI-AML5 cells expressing shRNA targeting CUL4A or CUL4B; assay: Dose response in OCI-AML5 expressing shRNAs targeting CUL4A, CUL4B or control; format: cell-based, H. sapiens

CC(C)(C)c1cnc(CSc2cnc(NC(=O)C3CCNCC3)s2)o1 [SNS-032, N-[5-[[[5-(1,1-dimethylethyl)-2-oxazolyl]methyl]thio]-2-thiazolyl]-4-piperidinecarboxamide] gave an IC50 ([1]; primary AML specimen 03H109) of 97.3 nM, an IC50 ([1]; primary AML specimen 04H055) of 85.7 nM and an IC50 ([1]; primary AML specimen 04H096) of 118 nM. The IC50 ([1]; primary AML specimen 04H138) was 101 nM, the IC50 ([1]; primary AML specimen 05H113) was 153 nM and the IC50 ([1]; primary AML specimen 05H149) was 547 nM. The IC50 ([1]; primary AML specimen 05H193) was 164 nM, the IC50 ([1]; primary AML specimen 06H088) was 217 nM and the IC50 ([1]; primary AML specimen 06H117) was 134 nM. The IC50 ([1]; primary AML specimen 06H151) was 135 nM, the IC50 ([1]; primary AML specimen 07H003) was 94.5 nM and the IC50 ([1]; primary AML specimen 07H131) was 512 nM. For the same compound, the IC50 ([1]; primary AML specimen 07H144) was 165 nM, the IC50 ([1]; primary AML specimen 07H155) was 231 nM and the IC50 ([1]; primary AML specimen 08H018) was 618 nM. The IC50 ([1]; primary AML specimen 08H021) was 90.9 nM, the IC50 ([1]; primary AML specimen 08H056) was 79.4 nM and the IC50 ([1]; primary AML specimen 08H063) was 146 nM. For the same compound, the IC50 ([1]; primary AML specimen 08H085) was 309 nM, the IC50 ([1]; primary AML specimen 08H108) was 70.8 nM and the IC50 ([1]; primary AML specimen 08H118) was 291 nM. The IC50 ([1]; primary AML specimen 09H016) was 244 nM, the IC50 ([1]; primary AML specimen 09H070) was 123 nM and the IC50 ([1]; primary AML specimen 10H014) was 563 nM. It also gave an IC50 ([1]; primary AML specimen 10H046) of 306 nM, an IC50 ([1]; primary AML specimen 10H107) of 324 nM and an IC50 ([1]; primary AML specimen 10H127) of 71.5 nM. It also gave an IC50 ([1]; primary AML specimen 10H161) of 97.5 nM, an IC50 ([1]; primary AML specimen 10H174) of 211 nM and an IC50 ([1]; primary AML specimen 11H008) of 161 nM. It also gave an IC50 ([1]; primary AML specimen 11H019) of 214 nM, an IC50 ([1]; primary AML specimen 11H170) of 523 nM and an IC50 ([1]; primary AML specimen 11H217) of 74 nM. It also gave an IC50 ([1]; primary AML specimen 11H232) of 299 nM, an IC50 ([1]; primary AML specimen 12H033) of 280 nM and an IC50 ([1]; primary AML specimen 12H055) of 183 nM. The IC50 ([1]; primary AML specimen 12H148) was 208 nM, the IC50 ([1]; primary AML specimen 13H053) was 563 nM and the IC50 ([1]; primary AML specimen 15H045) was 256 nM. For the same compound, the IC50 ([1]; primary AML specimen 17H065) was 2500 nM, the IC50 ([2]; OCI-AML-5, OCI-AML5 cells, read-out: IC50 in AML5) was 47 nM and the “MFI of cyclin KeGFP over mCherry” value ([3]; OCI-AML5 G7 clone, 3 h, 10 μM, normalized to DMSO (=100)) was 111.9 and 100.6 and 100.2 and 98.8 and 97.9. The “% degradation cyclin K-eGFP” value ([3]; cyclin K-eGFP reporter) was 0%, the inhibition at 1 µM [4] was 77% and the inhibition at 1 µM [5] was 63%. The IC50 ([6]; Homo sapiens, OCI-AML-5, 96 h, OCI-AML5, 4 days, read-out: IC50, sh CDK1) was 23.3 nM, the IC50 ([6]; Homo sapiens, OCI-AML-5, 96 h, OCI-AML5, 4 days, read-out: IC50, sh ctrl) was 37.4 nM and the IC50 ([6]; Homo sapiens, OCI-AML-5, 96 h, read-out: IC50, sh CDK7) was 24.5 nM. For the same compound, the IC50 ([6]; OCI-AML5, 4 days, read-out: IC50, sh CDK1) was 46.6 nM and 42 nM, the IC50 ([6]; OCI-AML5, 4 days, read-out: IC50, sh ctrl) was 47.4 nM and 50 nM and the Class ([6]; class from shRNA IC50 profile and cyclin K-eGFP degradation) was 2. The IC50 ([6]; read-out: IC50, sh CDK7) was 41 nM, the “potency upon CUL4A or CUL4B downregulation (for SNS-032, THZ531 also DDB1 depletion)” value ([7]; OCI-AML5, 4 days) was “remained unaffected” and the “Ratio shCUL4A/shCTRL” value ([7]; ratio of IC50 in shCUL4A vs shCTRL OCI-AML5 cells) was 1.01.

With CN(CCOCCOCCN)c1ccc(CC(=O)Nc2ncc(SCc3cccnc3)s2)cc1 [UOM-005790] the IC50 ([2]; OCI-AML-5, 96 h, 4 days incubation, read-out: IC50 OCI-AML5) was 680 nM.
